Legend:
[1] = biological target: TYK2(JH1domain-catalytic) (Homo sapiens, UniProt P29597); assay: biochemical; details: read-out: %Ctrl @ 2000nM
[2] = biological target: DMPK2 (Homo sapiens, UniProt Q6DT37); assay: biochemical; details: read-out: %Ctrl @ 2000nM
[3] = biological target: PCTK3 (Homo sapiens, UniProt Q07002); assay: biochemical; details: read-out: %Ctrl @ 2000nM
[4] = biological target: FLT3(R834Q) (Homo sapiens, UniProt P36888, R834Q); assay: biochemical; details: read-out: %Ctrl @ 2000nM
[5] = biological target: MET(Y1235D) (Homo sapiens, UniProt P08581, Y1235D); assay: biochemical; details: read-out: %Ctrl @ 2000nM
[6] = biological target: PAK2 (Homo sapiens, UniProt Q13177); assay: biochemical; details: read-out: %Ctrl @ 2000nM
[7] = biological target: NEK6 (Homo sapiens, UniProt Q9HC98); assay: biochemical; details: read-out: %Ctrl @ 2000nM
[8] = biological target: QSK (Homo sapiens, UniProt Q9Y2K2); assay: biochemical; details: read-out: %Ctrl @ 2000nM
[9] = biological target: KIT(L576P) (Homo sapiens, UniProt P10721, L576P); assay: biochemical; details: read-out: %Ctrl @ 2000nM
[10] = biological target: AMPK-alpha1 (Homo sapiens, UniProt Q13131); assay: biochemical; details: read-out: %Ctrl @ 2000nM
[11] = biological target: CDC2L2 (Homo sapiens, UniProt Q9UQ88); assay: biochemical; details: read-out: %Ctrl @ 2000nM
[12] = biological target: DCAMKL1 (Homo sapiens, UniProt O15075); assay: biochemical; details: read-out: %Ctrl @ 2000nM
[13] = biological target: CLK2 (Homo sapiens, UniProt P49760); assay: biochemical; details: read-out: %Ctrl @ 2000nM
[14] = biological target: FRK (Homo sapiens, UniProt P42685); assay: biochemical; details: read-out: %Ctrl @ 2000nM
[15] = system: CK2 in 786-O cells; details: read-out: IC50 CK2 activity in cell extracts
[16] = biological target: CAMK4 (Homo sapiens, UniProt Q16566); assay: biochemical; details: read-out: %Ctrl @ 2000nM
[17] = biological target: RET(V804L) (Homo sapiens, UniProt P07949, V804L); assay: biochemical; details: read-out: %Ctrl @ 2000nM
[18] = biological target: PIK3CA(H1047Y) (Homo sapiens, UniProt P42336, H1047Y); assay: biochemical; details: read-out: %Ctrl @ 2000nM
[19] = biological target: RSK4(Kin.Dom.2-C-terminal) (Homo sapiens, UniProt Q9UK32); assay: biochemical; details: read-out: %Ctrl @ 2000nM
[20] = system: FLT3(ITD,D835V)
[21] = biological target: FLT3(K663Q) (Homo sapiens, UniProt P36888, K663Q); assay: biochemical; details: read-out: %Ctrl @ 2000nM
[22] = biological target: DYRK1A (Homo sapiens, UniProt Q13627); assay: biochemical; details: read-out: %Ctrl @ 2000nM
[23] = biological target: GSK3A (Homo sapiens, UniProt P49840); assay: biochemical; details: read-out: %Ctrl @ 2000nM
[24] = biological target: ASK2 (Homo sapiens, UniProt O95382); assay: biochemical; details: read-out: %Ctrl @ 2000nM
[25] = biological target: PRKD1 (Homo sapiens, UniProt Q15139); assay: biochemical; details: read-out: %Ctrl @ 2000nM
[26] = system: AKT (S129); details: HEK293 cells; 48 h
[27] = biological target: AKT3 (Homo sapiens, UniProt Q9Y243); assay: biochemical; details: read-out: %Ctrl @ 2000nM
[28] = biological target: TRKB (Homo sapiens, UniProt Q16620); assay: biochemical; details: read-out: %Ctrl @ 2000nM
[29] = biological target: TRKC (Homo sapiens, UniProt Q16288); assay: biochemical; details: read-out: %Ctrl @ 2000nM
[30] = biological target: MAP3K1 (Homo sapiens, UniProt Q13233); assay: biochemical; details: read-out: %Ctrl @ 2000nM
[31] = biological target: EPHA1 (Homo sapiens, UniProt P21709); assay: biochemical; details: read-out: %Ctrl @ 2000nM
[32] = biological target: MST3 (Homo sapiens, UniProt Q9Y6E0); assay: biochemical; details: read-out: %Ctrl @ 2000nM
[33] = biological target: CDK5 (Homo sapiens, UniProt Q00535); assay: biochemical; details: read-out: %Ctrl @ 2000nM
[34] = biological target: PIK3CB (Homo sapiens, UniProt P42338); assay: biochemical; details: read-out: %Ctrl @ 2000nM
[35] = biological target: LRRK2 (Homo sapiens, UniProt Q5S007); assay: biochemical; details: read-out: %Ctrl @ 2000nM
[36] = biological target: DYRK1B (Homo sapiens, UniProt Q9Y463); assay: biochemical; details: read-out: %Ctrl @ 2000nM
[37] = biological target: MERTK (Homo sapiens, UniProt Q12866); assay: biochemical; details: read-out: %Ctrl @ 2000nM
[38] = biological target: TGFBR1 (Homo sapiens, UniProt P36897); assay: biochemical; details: read-out: %Ctrl @ 2000nM
[39] = biological target: TAK1 (Homo sapiens, UniProt O43318); assay: biochemical; details: read-out: %Ctrl @ 2000nM
[40] = biological target: SYK (Homo sapiens, UniProt P43405); assay: biochemical; details: read-out: %Ctrl @ 2000nM
[41] = biological target: PIP5K1A (Homo sapiens, UniProt Q99755); assay: biochemical; details: read-out: %Ctrl @ 2000nM
[42] = biological target: ADCK3 (Homo sapiens, UniProt Q8NI60); assay: biochemical; details: read-out: %Ctrl @ 2000nM
[43] = biological target: LATS2 (Homo sapiens, UniProt Q9NRM7); assay: biochemical; details: read-out: %Ctrl @ 2000nM

TYK2(JH1domain-catalytic), sequence (P29597 897-1176 limits assumed): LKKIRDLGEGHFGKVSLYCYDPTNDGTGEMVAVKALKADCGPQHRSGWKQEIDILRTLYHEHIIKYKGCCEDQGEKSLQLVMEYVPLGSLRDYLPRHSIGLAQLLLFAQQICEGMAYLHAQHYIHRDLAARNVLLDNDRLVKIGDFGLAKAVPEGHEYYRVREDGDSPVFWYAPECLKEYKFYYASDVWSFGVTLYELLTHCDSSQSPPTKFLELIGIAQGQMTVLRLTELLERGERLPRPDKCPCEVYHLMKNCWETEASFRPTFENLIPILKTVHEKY
DCAMKL1, sequence (O15075 whole entry): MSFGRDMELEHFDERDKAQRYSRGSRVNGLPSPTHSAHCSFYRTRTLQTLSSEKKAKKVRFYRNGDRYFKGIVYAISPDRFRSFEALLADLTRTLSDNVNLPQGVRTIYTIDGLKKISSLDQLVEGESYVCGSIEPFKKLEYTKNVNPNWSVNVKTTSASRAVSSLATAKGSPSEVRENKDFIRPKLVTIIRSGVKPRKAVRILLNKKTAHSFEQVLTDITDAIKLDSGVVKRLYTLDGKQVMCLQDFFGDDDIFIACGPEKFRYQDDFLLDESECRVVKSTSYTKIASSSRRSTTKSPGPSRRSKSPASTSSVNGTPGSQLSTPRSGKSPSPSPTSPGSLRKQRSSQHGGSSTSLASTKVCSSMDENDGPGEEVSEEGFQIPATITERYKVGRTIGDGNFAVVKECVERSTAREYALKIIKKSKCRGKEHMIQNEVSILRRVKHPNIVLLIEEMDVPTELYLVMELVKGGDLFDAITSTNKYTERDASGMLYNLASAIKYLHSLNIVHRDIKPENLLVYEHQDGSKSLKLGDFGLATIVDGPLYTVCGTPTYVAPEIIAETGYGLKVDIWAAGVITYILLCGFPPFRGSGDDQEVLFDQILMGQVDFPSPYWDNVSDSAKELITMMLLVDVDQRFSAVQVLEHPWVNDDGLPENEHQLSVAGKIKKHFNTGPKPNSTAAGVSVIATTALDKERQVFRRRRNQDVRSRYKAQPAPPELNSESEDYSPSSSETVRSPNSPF
EPHA1, sequence (P21709 26-976): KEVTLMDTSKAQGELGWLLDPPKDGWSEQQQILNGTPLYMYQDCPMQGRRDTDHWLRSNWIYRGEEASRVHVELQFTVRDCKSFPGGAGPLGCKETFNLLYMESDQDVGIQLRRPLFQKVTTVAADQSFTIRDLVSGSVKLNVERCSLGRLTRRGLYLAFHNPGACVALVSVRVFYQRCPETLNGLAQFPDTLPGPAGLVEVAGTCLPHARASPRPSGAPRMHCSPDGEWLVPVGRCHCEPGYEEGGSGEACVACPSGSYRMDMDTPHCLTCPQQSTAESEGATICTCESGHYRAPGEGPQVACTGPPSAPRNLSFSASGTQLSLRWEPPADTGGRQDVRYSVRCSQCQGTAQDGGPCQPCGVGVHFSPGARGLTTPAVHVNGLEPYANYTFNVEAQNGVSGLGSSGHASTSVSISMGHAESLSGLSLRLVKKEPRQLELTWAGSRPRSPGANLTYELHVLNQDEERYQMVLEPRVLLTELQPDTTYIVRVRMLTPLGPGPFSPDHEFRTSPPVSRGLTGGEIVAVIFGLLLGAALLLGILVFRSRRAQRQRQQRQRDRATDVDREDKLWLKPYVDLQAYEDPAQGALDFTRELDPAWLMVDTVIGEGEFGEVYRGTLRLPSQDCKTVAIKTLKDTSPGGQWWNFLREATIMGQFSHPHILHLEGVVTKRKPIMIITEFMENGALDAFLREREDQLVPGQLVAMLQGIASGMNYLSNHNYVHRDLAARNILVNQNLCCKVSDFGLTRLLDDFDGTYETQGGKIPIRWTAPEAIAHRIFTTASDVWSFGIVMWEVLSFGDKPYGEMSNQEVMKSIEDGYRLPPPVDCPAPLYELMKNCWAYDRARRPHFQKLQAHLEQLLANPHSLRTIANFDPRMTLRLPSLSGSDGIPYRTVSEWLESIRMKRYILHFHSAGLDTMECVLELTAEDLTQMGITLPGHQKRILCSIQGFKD
PRKD1, sequence (Q15139 whole entry): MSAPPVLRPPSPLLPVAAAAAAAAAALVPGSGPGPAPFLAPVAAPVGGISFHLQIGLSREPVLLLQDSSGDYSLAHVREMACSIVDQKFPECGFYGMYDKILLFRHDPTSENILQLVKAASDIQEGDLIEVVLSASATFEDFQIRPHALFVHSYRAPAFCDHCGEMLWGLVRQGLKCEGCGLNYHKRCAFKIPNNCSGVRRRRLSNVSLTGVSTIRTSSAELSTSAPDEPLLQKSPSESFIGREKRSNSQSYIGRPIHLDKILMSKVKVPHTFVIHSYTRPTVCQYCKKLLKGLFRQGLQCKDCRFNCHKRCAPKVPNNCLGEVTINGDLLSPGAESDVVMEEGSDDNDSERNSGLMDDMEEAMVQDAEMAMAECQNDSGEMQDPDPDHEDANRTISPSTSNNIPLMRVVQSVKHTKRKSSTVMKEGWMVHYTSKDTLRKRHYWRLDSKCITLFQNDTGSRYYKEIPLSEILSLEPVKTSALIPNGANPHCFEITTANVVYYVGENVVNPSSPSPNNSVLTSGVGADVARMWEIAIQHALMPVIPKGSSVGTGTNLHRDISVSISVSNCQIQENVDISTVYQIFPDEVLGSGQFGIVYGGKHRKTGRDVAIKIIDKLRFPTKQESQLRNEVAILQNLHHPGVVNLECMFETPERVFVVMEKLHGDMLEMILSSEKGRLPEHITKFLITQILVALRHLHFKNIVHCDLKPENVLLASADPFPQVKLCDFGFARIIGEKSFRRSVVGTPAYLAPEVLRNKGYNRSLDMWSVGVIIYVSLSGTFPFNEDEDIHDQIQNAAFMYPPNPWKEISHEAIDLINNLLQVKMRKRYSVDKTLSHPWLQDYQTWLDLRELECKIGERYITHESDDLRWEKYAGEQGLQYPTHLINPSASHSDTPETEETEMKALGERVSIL
DMPK2, sequence (Q6DT37 whole entry): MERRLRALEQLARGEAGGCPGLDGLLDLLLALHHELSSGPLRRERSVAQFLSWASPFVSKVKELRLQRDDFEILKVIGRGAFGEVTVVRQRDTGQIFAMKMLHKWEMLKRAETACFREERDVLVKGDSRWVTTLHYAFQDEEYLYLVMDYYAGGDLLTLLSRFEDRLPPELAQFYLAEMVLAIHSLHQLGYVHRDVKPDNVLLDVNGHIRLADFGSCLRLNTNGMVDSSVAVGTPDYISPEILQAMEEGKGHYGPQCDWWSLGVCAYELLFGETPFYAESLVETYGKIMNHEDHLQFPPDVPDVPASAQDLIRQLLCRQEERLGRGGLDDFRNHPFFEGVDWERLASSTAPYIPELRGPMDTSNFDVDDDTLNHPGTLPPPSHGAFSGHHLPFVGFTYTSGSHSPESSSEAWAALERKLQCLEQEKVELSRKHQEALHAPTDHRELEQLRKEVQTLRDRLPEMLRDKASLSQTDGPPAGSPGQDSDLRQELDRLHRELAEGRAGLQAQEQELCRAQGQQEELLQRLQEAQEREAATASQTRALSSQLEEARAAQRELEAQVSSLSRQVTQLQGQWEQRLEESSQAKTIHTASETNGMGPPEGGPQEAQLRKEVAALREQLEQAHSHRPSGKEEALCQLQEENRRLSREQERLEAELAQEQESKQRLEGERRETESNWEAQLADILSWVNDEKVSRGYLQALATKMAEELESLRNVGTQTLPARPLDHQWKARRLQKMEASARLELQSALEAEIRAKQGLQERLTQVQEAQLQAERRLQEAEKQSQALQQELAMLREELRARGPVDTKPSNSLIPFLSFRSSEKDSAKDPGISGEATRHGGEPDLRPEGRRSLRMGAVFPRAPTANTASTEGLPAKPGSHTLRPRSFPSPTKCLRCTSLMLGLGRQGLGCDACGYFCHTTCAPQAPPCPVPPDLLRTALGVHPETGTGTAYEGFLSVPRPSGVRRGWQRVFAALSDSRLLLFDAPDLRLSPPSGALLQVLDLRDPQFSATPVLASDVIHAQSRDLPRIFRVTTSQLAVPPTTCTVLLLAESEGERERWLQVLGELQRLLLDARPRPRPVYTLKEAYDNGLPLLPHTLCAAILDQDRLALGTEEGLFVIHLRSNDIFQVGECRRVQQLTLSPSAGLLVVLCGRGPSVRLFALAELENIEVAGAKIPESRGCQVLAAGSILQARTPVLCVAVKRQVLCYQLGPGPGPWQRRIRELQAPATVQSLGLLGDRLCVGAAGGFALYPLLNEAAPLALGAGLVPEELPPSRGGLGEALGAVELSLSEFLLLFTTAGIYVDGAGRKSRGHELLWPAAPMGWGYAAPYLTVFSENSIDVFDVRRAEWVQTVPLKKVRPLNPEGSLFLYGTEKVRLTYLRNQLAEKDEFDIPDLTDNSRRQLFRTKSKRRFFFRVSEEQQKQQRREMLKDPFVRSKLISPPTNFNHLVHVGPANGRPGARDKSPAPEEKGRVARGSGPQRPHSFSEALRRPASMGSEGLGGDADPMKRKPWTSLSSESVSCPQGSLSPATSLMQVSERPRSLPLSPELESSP
FRK, sequence (P42685 whole entry): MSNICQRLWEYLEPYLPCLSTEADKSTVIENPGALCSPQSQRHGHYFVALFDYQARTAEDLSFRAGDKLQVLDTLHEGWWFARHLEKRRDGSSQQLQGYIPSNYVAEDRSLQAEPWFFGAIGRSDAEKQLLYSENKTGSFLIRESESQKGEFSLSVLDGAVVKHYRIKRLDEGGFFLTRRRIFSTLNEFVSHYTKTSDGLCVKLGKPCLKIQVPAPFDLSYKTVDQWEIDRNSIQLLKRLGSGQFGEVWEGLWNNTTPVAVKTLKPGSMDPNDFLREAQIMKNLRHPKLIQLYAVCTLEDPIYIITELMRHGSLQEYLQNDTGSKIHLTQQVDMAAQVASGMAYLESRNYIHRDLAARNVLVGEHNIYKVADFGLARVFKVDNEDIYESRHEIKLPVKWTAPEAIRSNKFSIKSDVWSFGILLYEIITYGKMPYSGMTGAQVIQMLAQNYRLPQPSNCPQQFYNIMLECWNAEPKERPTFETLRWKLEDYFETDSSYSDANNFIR

CC(C)COC(=O)c1[nH]c2ccc(F)cc2c1-c1cn(CC2CCN(CCNS(=O)(=O)c3ccc(CC(C)C)cc3)CC2)nn1 [AB668, isobutyl 5-fluoro-3-(1-((1-(2-((4-isobutylphenyl)sulfonamido)ethyl)piperidin-4-yl)methyl)-1H-1,2,3-triazol-4-yl)-1H-indole-2-carboxylate]
remaining activity at 2 µM [1]: 85%
remaining activity at 2 µM [2]: 85%
remaining activity at 2 µM [3]: 91%
remaining activity at 2 µM [4]: 77%
remaining activity at 2 µM [5]: 74%
remaining activity at 2 µM [6]: 81%
remaining activity at 2 µM [7]: 87%
remaining activity at 2 µM [8]: 85%
remaining activity at 2 µM [9]: 91%
remaining activity at 2 µM [10]: 99%
remaining activity at 2 µM [11]: 94%
remaining activity at 2 µM [12]: 71%
remaining activity at 2 µM [13]: 98%
remaining activity at 2 µM [14]: 70%
IC50 [15]: 340 ± 70 nM
remaining activity at 2 µM [16]: 100%
remaining activity at 2 µM [17]: 93%
remaining activity at 2 µM [18]: 100%
remaining activity at 2 µM [19]: 94%
%Ctrl @ 2000nM [20]: 77%
remaining activity at 2 µM [21]: 96%
remaining activity at 2 µM [22]: 99%
remaining activity at 2 µM [23]: 84%
remaining activity at 2 µM [24]: 75%
remaining activity at 2 µM [25]: 100%
AKT phosphorylation [26]: weakly affected
remaining activity at 2 µM [27]: 92%
remaining activity at 2 µM [28]: 87%
remaining activity at 2 µM [29]: 100%
remaining activity at 2 µM [30]: 91%
remaining activity at 2 µM [31]: 99%
remaining activity at 2 µM [32]: 100%
remaining activity at 2 µM [33]: 99%
remaining activity at 2 µM [34]: 90%
remaining activity at 2 µM [35]: 65%
remaining activity at 2 µM [36]: 83%
remaining activity at 2 µM [37]: 96%
remaining activity at 2 µM [38]: 84%
remaining activity at 2 µM [39]: 84%
remaining activity at 2 µM [40]: 100%
remaining activity at 2 µM [41]: 85%
remaining activity at 2 µM [42]: 86%
remaining activity at 2 µM [43]: 89%
